What is called Ki is the dissociation constant of the complex between target and ligand, obtained from inhibition or displacement. For orientation: IC50 means the concentration at which inhibition is half-maximal. One may read the EC50 as the concentration giving half of the maximal effect. A lower EC50 goes with greater potency.

From paper PMC12910498 (ACS pharmacology & translational science, 2026) come the findings set out here.

Experiment [1] deals with human D3R (Homo sapiens, UniProt P35462). In words: biochemical.
The target of experiment [2] is human D2R long isoform (Homo sapiens, UniProt P14416). In words: DiscoverX PathHunter β-arrestin recruitment assay, D2R. Background: Recruitment of arrestin is a read-out of receptor activation apart from second messengers.
In experiment [3] the target is T1, human D4R (Homo sapiens, UniProt P21917).
T1 sequence (P21917 1-419): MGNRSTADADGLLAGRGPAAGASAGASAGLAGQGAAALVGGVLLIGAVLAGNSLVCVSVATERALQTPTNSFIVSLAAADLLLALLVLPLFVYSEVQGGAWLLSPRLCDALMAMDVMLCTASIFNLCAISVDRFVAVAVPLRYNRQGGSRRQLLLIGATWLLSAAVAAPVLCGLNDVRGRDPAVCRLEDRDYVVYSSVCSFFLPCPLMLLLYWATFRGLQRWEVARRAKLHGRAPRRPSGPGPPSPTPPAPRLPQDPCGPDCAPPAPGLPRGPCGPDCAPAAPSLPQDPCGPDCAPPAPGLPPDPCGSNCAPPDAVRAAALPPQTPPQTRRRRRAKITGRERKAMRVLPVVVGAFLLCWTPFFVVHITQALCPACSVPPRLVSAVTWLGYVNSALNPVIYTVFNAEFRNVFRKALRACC
In words: DiscoverX PathHunter β-arrestin recruitment assay, D4R.

Experiment [4] deals with human D2LR (Homo sapiens, UniProt P14416). In words: biochemical.
[5] abbreviates: antagonist mode, EC80 dopamine (1 μM), normalized to spiperone.

The structures appear in SMILES notation. Bounds are passed on as bounds.

Chain of human D2R long isoform (P14416 whole entry, canonical isoform): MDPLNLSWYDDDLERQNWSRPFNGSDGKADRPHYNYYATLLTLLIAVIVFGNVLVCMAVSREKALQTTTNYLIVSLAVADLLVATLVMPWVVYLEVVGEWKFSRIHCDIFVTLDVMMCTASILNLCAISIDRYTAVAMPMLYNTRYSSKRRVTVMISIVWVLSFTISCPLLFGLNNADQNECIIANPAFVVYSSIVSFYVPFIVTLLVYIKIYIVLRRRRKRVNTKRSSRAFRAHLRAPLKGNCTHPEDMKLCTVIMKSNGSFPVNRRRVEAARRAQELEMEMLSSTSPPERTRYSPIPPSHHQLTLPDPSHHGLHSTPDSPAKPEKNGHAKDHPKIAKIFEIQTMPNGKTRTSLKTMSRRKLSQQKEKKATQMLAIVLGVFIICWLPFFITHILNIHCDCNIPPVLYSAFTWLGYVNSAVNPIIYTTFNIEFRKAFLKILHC
Chain of human D2LR (P14416 whole entry): as the sequence (P14416 whole entry, canonical isoform) above
Chain of human D3R (P35462 whole entry, canonical isoform): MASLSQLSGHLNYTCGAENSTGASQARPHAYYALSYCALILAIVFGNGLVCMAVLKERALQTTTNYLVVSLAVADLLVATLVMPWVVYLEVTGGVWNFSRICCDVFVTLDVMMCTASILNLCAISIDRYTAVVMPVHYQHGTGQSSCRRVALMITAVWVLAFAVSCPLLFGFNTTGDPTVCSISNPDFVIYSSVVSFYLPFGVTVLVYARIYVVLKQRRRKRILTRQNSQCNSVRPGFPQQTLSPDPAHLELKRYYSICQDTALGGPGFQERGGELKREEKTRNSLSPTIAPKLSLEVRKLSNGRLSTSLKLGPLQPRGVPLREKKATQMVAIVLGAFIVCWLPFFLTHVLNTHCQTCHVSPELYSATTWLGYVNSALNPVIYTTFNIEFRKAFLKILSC

As to `Cc1cccc(-n2cc(CN3CCN(c4cccc5ccccc45)CC3)nn2)c1` [Compound 18, 1-(Naphthalen-1-yl)-4-((1-(m-tolyl)-1H-1,2,3-triazol-4-yl)methyl)piperazine], the Ki was found to be 10.8 µM in experiment [1] and 6.54 ± 5.37 µM in experiment [4]. The IC50 is 4.7 ± 1.1 µM in experiment [2] and 3.6 ± 1.1 µM in experiment [3]. Further, the “D2R Ant (%)” value in experiment [2] (setting [5]) amounted to 87.8 ± 26.7%. In addition, the EC50 in experiment [3] is greater than 10 µM. The “D4R average activity at the highest tested dose” value in experiment [3] (agonist mode, at 10 μM (Emax ND)) is “ND (8% at 10 μM)”. For the same molecule, in experiment [3] (setting [5]), the “D4R Ant. (%)” value worked out at 92.1 ± 12.1%.
